Experimental data from patent US20220184008A1, “MODULATORS OF INTRACELLULAR CHLORIDE CONCENTRATION” (FONDAZIONE ISTITUTO ITALIANO DI TECNOLOGIA, priority 2019, published 2022).

What was measured:
NKCC1 = experiment: Calcium kinetic assay in primary cultures of immature hippocampal neurons; format: cell-based; conditions: for NKCC1 Inhibition % 10 μM Neurons Calcium kinetic assay: immature neurons 3 DIV
NKCC2 = biological target: T1, NKCC2 (Homo sapiens, UniProt Q13621); experiment: Thallium-based assay in NKCC2-transfected HEK293 cells; format: cell-based
T1 construct: expressed in transfected cells; host or cells: HEK293
T1 sequence (Q13621 1-1099): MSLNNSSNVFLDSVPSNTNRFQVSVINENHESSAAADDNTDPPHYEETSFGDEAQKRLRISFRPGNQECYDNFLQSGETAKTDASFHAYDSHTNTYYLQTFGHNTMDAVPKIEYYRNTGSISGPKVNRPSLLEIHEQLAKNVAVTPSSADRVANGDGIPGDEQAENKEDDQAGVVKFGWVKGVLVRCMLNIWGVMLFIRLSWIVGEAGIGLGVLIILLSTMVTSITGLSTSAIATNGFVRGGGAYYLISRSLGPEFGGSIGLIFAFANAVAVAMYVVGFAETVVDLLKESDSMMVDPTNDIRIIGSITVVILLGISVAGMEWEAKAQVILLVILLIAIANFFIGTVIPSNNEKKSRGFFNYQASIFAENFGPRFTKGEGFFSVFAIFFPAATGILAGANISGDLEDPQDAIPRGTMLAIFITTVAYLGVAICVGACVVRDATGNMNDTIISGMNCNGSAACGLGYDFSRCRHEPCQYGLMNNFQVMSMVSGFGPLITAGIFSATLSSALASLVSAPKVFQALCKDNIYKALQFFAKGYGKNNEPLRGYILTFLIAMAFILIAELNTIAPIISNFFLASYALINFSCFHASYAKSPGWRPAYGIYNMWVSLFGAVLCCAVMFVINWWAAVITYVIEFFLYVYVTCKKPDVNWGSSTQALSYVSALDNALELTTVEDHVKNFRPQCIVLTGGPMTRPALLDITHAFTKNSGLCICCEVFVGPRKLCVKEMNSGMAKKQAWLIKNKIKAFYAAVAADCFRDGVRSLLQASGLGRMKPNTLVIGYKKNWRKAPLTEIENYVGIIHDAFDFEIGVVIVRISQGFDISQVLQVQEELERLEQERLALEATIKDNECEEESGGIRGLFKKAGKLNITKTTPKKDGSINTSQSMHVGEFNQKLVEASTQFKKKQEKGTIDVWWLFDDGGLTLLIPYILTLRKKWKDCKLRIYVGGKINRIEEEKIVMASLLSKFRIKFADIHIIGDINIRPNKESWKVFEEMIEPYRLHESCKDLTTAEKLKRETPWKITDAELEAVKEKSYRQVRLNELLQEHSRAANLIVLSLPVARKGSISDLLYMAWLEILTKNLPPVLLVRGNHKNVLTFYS
From the text: The Thallium-based assay is a standard assay used to measure activity of potassium transporters, like NKCC2 which is a sodium potassium and chloride co-transporter. The assay consists on the monitoring of the cells upon the application of thallium (which mimic K^+) and consequently NaCl, which entering into cells by NKCC2, activated by the presence of the chloride ions, binds the fluorescent dye, thus determining a fluorescence increase. This assay involves parallel testing in 96 wells for a quick and easy drug screening. In detail, kidney epithelial cells (HEK293) were transfected with NKCC2 transporters, or a mock construct (control). After two days, the cells were loaded with a thallium-sensitive fluorescent dye in a Cl-free medium. After 1 hour of incubation, the inhibitory activity of bumetanide and furosemide (as positive controls) and the new compounds by monitoring fluorescence upon application of thallium (to mimic K) and subsequently NaCl were tested. When entering cells by NKCC2 (activated by the presence of Cl), thallium binds the fluorescent dye and increases fluorescence. […] A decreased fluorescence in the mock-transfected cells treated with bumetanide and furosemide was observed. […] This latter result was used to normalize the fluorescence measurements obtained with the assay. In particular, the ΔF/F0 value of the mock-transfected cells (both control and treated) was subtracted from the respective ΔF/F0 value of the cells transfected with the Cl transporters. With this assay, the novel chemical entities were tested for their ability to block NKCC2 (Results in Table 2).
The arrow indicates the addition of thallium (final concentration 2 mM) and NaCl stimulus (135 mM) used to initiate the flux assay. b) Quantification of the effect of bumetanide, furosemide and 3 example compounds (3.8, 3.13, 3.17) in the thallium-based assay on NKCC2-transfected HEK293 cells. Data represents mean±sem from 5 independent experiments, and they are represented as % of the controls. *P<0.05, **P<0.01, ***P<0.001 Kruskal-Wallis Anova (Dunn's Post hoc Test); ###P<0.001 two-tailed unpaired Student t-test.

[1] = 10 μM, NKCC2-transfected HEK293, Table 2

Molecule | inhibition at 10 µM (NKCC2; [1]) | NKCC1/NKCC2 selectivity (NKCC2; among compounds of the invention) | NKCC1 Inhibition % 10 μM Neurons Calcium kinetic assay (NKCC1; Table 1) | NKCC1 Inhibition % 10 μM Neurons Calcium kinetic assay (NKCC1; Table 2) | fluorescence increase upon GABA application compared with vehicle (DMSO)-treated controls (NKCC1; GABA 100 μM, normalized to KCl) | NKCC2 Inhibition % 10 μM Thallium Assay (NKCC2; [1])
CCCCCCNc1ccc(C(=O)O)cc1S(=O)(=O)NC [Compound 3.7, 4-(hexylamino)-3-(methylsulfamoyl)benzoic acid] | 8% | – | 7% | 7% | – | –
CCCCCCCCNc1ccc(C(=O)O)cc1S(=O)(=O)NC [Compound 3.8, 3-(methylsulfamoyl)-4-(octylamino)benzoic acid] | 0% | – | 20% | 20% | – | –
CNS(=O)(=O)c1cc(C(=O)O)ccc1NCCC(C)(C)C [Compound 3.9, 4-(3,3-dimethylbutylamino)-3-(methylsulfamoyl)benzoic acid] | 12% | – | 14% | 14% | – | –
CCCCNc1ccc(C(=O)O)cc1S(=O)(=O)N(C)C [Compound 3.11, 4-(butylamino)-3-(dimethylsulfamoyl)benzoic acid] | 0% | – | 8% | 8% | – | –
Furosemide [reference compound] | – | – | 36% | 36% | significantly reduced | 0%

Second part, led by results:

inhibition at 10 µM (NKCC2; [1]) | NKCC1/NKCC2 selectivity (NKCC2; among compounds of the invention) | Molecule | NKCC1 Inhibition % 10 μM Neurons Calcium kinetic assay (NKCC1; Table 1) | NKCC1 Inhibition % 10 μM Neurons Calcium kinetic assay (NKCC1; Table 2) | fluorescence increase upon GABA application compared with vehicle (DMSO)-treated controls (NKCC1; GABA 100 μM, normalized to KCl) | NKCC2 Inhibition % 10 μM Thallium Assay (NKCC2; [1])
29% | – | CCCCCCNc1ccc(C(=O)O)cc1S(=O)(=O)N(C)C [Compound 3.12, 3-(dimethylsulfamoyl)-4-(hexylamino)benzoic acid] | 13% | 13% | – | –
0% | – | CCCCCCCCNc1ccc(C(=O)O)cc1S(=O)(=O)N(C)C [Compound 3.13, 3-(dimethylsulfamoyl)-4-(octylamino)benzoic acid] | 45% | 45% | – | –
0% | – | CN(C)S(=O)(=O)c1cc(C(=O)O)ccc1NCCC(C)(C)C [Compound 3.14, 4-(3,3-dimethylbutylamino)-3-(dimethylsulfamoyl)benzoic acid] | 11% | 11% | – | –
0% | highest | CN(C)S(=O)(=O)c1cc(C(=O)O)ccc1NCCCCCCCC(F)(F)F [Compound 3.17, 3-(dimethylsulfamoyl)-4-(8,8,8-trifluorooctylamino) benzoic acid] | 46% | 46% | – | –
